{"source": "paper PMC11237753", "about": "“Discovery of α-(1→6)-linked mannan structures resembling yeast N-glycan outer chains in Aspergillus fumigatus mycelium” (mSphere, 2024)", "key": {"Mnn5 (AfMnn5)": {"molecular_target": "T1, Mnn5 (AfMnn5) (Aspergillus fumigatus, UniProt B0Y1T7)", "T1 construct": "gene AFUB_060800; N-terminal 6xHis, transmembrane residues 1-29 removed (30-492), expressed in E. coli SHuffle T7 Express, about 52 kDa", "T1 sequence (B0Y1T7 30-492)": "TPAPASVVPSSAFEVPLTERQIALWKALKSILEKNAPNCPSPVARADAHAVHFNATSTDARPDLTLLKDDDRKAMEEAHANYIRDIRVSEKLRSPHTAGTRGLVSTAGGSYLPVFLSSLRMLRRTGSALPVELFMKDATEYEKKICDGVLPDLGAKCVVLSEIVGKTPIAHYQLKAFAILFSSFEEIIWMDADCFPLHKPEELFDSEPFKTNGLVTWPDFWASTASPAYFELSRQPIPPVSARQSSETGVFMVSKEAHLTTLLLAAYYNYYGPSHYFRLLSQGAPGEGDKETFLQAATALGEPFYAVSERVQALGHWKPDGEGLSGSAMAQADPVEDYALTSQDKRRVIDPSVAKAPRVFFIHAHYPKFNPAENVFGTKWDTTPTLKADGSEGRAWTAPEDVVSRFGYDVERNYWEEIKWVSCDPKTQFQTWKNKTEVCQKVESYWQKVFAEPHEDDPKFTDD", "assay": "reverse-phase HPLC of products", "format": "biochemical", "settings": "acceptor 1.5 mM; 10 mM GDP-Man, 0.5 mM MnCl2, pH 6.8, 30 °C, 16 h"}, "Mnn2 (AfMnn2)": {"molecular_target": "T2, Mnn2 (AfMnn2) (Aspergillus fumigatus, UniProt B0YD06)", "T2 construct": "gene AFUB_093840; N-terminal 6xHis, transmembrane residues 1-30 removed (31-493), expressed in E. coli SHuffle T7 Express, about 53 kDa", "T2 sequence (B0YD06 31-493)": "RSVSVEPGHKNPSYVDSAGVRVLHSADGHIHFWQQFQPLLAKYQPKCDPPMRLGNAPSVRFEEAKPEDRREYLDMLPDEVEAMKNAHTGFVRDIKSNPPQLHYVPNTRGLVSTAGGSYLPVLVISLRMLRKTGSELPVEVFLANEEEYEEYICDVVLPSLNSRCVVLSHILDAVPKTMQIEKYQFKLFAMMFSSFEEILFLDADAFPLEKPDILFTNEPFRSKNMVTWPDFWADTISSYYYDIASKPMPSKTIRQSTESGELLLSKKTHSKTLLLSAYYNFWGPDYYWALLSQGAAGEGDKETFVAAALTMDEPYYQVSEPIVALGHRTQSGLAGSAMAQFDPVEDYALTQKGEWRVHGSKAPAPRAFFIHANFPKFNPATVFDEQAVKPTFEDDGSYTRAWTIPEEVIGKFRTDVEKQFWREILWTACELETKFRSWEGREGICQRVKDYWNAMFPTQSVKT", "assay": "reverse-phase HPLC of products", "format": "biochemical", "settings": "acceptor 1.5 mM; 10 mM GDP-Man, 0.5 mM MnCl2, pH 6.8, 30 °C, 16 h"}}}
{"smiles": "O=[N+]([O-])c1ccc(O[C@H]2O[C@H](CO)[C@@H](O)[C@H](O)[C@@H]2O)cc1", "note": "[p-nitrophenyl α-D-mannopyranoside]", "values": [{"measurement": "reverse-phase HPLC of products", "setting": "Mnn5 (AfMnn5)", "result": "fractions containing Mnn2 or Mnn5 revealed new products"}, {"measurement": "reverse-phase HPLC of products", "setting": "Mnn2 (AfMnn2)", "result": "fractions containing Mnn2 or Mnn5 revealed new products"}]}
